Measurements from patent publication EP0748335B1, “ANTIBIOTIC STALOBACINS” (SHIONOGI & CO., LTD., priority 1994, dated 1995).
Converted amounts (≈) assume the structure as drawn.

Tests used:
[1] = test system: S. aureus FDA JC-1; assay: In vitro antibacterial activity, agar dilution method; format: cell-based; settings: 10^6 cfu/ml
Procedure: (§1) Antibacterial activity in vitro of antibiotic stalobacins H and I obtained in Example 1 was assayed by the agar dilution method.

[2] = test system: S. faecalis SR1004; assay: as above; format: cell-based; settings: 10^6 cfu/ml
Procedure: as §1

[3] = test system: S. aureus 3626 (MRSA); assay: as above; format: cell-based; settings: 10^6 cfu/ml
Procedure: as §1

[4] = test system: S. aureus SR3637 (H-MRSA); assay: Protective effect in systemically infected mice; format: in vivo; settings: mice challenged intraperitoneally with S. aureus SR3637 (H-MRSA); subcutaneous administration one hour after challenge; survival ratio on 7th day
Procedure: (§2) Antibacterial activity in vivo of stalobacin I was assayed. Mice were intraperitoneally challenged with infectious bacteria. One hour after the challenge, the test compound was subcutaneously administered. ED50 values was calculated on the basis of survival ratio on 7th day after the challenge. MIC was determined according to the agar dilution method.

[5] = test system: E. faecalis SR1004; assay: Protective effect in systemically infected mice; format: in vivo; settings: mice challenged intraperitoneally with E. faecalis SR1004; subcutaneous administration one hour after challenge; survival ratio on 7th day
Procedure: as §2

[6] = test system: S. pneumoniae Type I; assay: Protective effect in systemically infected mice; format: in vivo; settings: mice challenged intraperitoneally with S. pneumoniae Type I; subcutaneous administration one hour after challenge; survival ratio on 7th day
Procedure: as §2

[7] = test system: S. aureus SR3637 (H-MRSA); format: cell-based
Procedure: as §2

[8] = test system: E. faecalis SR1004; format: cell-based
Procedure: as §2

[9] = test system: S. pneumoniae Type I; format: cell-based
Procedure: as §2

With CCCCCC/C=C\CCCCC[C@@H]1C[C@H]1/C=C/C(O)C(=O)N[C@H](C(=O)N(C)[C@@H](CC(=O)O)C(=O)N(COC(C)(CC)C(NC(=O)C(NC(=O)[C@@H](N)CC(=O)O)C(O)C(O)CNC(=N)N)C(=O)NCC(=O)N[C@@H](CO)C(=O)O)[C@@]12C[C@@H]1CN(C(=N)N)C2=O)[C@H](O)C(=O)O (stereo partly drawn) [Stalobacin I] the “Antibacterial activity in vitro” value [1] was 0.05 µg/mL, the “Antibacterial activity in vitro” value [2] was 0.2 µg/mL and the “Antibacterial activity in vitro” value [3] was 0.1 µg/mL. For the same compound, the ED50 [4] was 0.12 mg/kg, the ED50 [5] was 1.50 mg/kg and the ED50 [6] was 0.046 mg/kg. It also gave an MIC [7] of 0.012 µg/mL (≈ 9.05 nM), an MIC [8] of 0.2 µg/mL (≈ 151 nM) and an MIC [9] of 0.006 µg/mL (≈ 4.53 nM).
